Experimental data published in US9527838B2, “2-pyridinecarboxamide derivatives, compositions containing such compounds, and methods of treatment” (priority 2012, dated 2016).

Target: Recombinant human liver glucokinase (Homo sapiens (Human), UniProt P35557)
Test: Glucokinase activation assay (G6PDH-coupled, Thio-NADH absorbance at 405 nm)
Assay type: biochemical
Settings: for EC50: 2.5 mM Glu, 30° C.
Excerpt: The glucokinase activity can, for instance, be determined without directly measuring glucose-6-phosphate by measuring the amount of Thio-NADH generated during the production of phosphogluconolactone from glucose-6-phosphate by a reporter enzyme glucose-6-phosphate dehydrogenase.
To test the exemplified compounds, the following assay was employed. Recombinant human liver glucokinase was expressed as a FLAG fusion protein in E. coli, and purified on […] M2 AFFINITY GEL (Sigma). The assay was carried out at 30° C. in a 96-well plate. In the plate was distributed 69 μl each of assay buffer (25 mM Hepes Buffer: pH=7.2, 2 mM MgCl2, 1 mM ATP, 0.5 mM TNAD, 1 mM dithiothreitol), to which was added 1 μl of a DMSO solution of the compound or DMSO as control. Then, 20 μl of pre-ice-cooled enzyme mixture (FLAG-GK, 20 U/ml G6PDH) was distributed thereto, to which was added 10 μl of 25 mM glucose as substrate to initiate the reaction (final glucose concentration=2.5 mM). After starting the reaction, the absorbance at 405 nm was measured every 30 seconds for 10 minutes to evaluate the compound based on the initial increase for 5 minutes. FLAG-GK was added so that the increase of absorbance after 5 minutes fell between 0.05 to 0.1 in the presence of 1% DMSO.
The OD values of the respective compounds were measured in the respective concentrations, wherein the OD value of DMSO as control is regarded as 100%.

Sequence of Recombinant human liver glucokinase (P35557 other isoform, or with tags, fused parts or gaps): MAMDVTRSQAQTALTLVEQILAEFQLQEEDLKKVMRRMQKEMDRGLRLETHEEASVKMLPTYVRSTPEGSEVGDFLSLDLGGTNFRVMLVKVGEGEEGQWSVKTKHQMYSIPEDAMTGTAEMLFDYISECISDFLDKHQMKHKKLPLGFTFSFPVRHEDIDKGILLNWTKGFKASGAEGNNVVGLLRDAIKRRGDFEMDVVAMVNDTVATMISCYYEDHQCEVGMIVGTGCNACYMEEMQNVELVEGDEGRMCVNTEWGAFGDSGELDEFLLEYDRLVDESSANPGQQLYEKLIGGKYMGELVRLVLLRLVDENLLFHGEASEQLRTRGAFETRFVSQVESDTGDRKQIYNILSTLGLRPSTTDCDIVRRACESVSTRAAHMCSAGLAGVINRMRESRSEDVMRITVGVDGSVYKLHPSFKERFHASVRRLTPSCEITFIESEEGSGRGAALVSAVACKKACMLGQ

Molecule `CCOC(=O)CSc1cnc(NC(=O)c2nc(Sc3ccccn3)ccc2Sc2ccc(F)cc2)s1` [Example 35, Ethyl ({2-[({3-[(4-fluorophenyl)sulfanyl]-6-(pyridin-2-ylsulfanyl)pyridin-2-yl}carbonyl)amino]-1,3-thiazol-5-yl}sulfanyl)acetate] has an Emax of 504% and an EC50 of 0.0838 µM.

In the case of `CCOC(=O)C(C)(C)CSc1cnc(NC(=O)c2nc(Sc3nncn3C)ccc2Sc2ccc(F)cc2)s1` [Example 20], the Emax is reported as 460%.

Work on `CCOC(=O)Cc1csc(NC(=O)c2nc(Sc3nncn3C)ccc2Sc2ccc(C(F)(F)F)cc2)n1` [Example 46, Ethyl (2-{[(6-[(4-methyl-4H-1,2,4-triazol-3-yl)sulfanyl]-3-{[4-(trifluoromethyl)phenyl]sulfanyl}pyridin-2-yl)carbonyl]amino}-1,3-thiazol-4-yl)acetate] yielded an Emax of 466% and an EC50 of 0.0663 µM.

`COC(=O)CCc1cnc(NC(=O)c2nc(Sc3nncn3C)ccc2Sc2ccc(OC)cc2)s1` [Example 7, Methyl 3-{2-[({3-[(4-methoxyphenyl)sulfanyl]-6-[(4-methyl-4H-1,2,4-triazol-3-yl)sulfanyl]pyridin-2-yl}carbonyl)amino]-1,3-thiazol-5-yl}propanoate] gave an Emax of 550% and an EC50 of 0.0234 µM.

`Cn1cnnc1Sc1ccc(Sc2ccc(C(F)(F)F)cc2)c(C(=O)Nc2nc(CC(=O)O)c(Cl)s2)n1` [Example 42, (5-Chloro-2-{[(6-[(4-methyl-4H-1,2,4-triazol-3-yl)sulfanyl]-3-{[4-(trifluoromethyl)phenyl]sulfanyl}pyridin-2-yl)carbonyl]amino}-1,3-thiazol-4-yl)acetic acid] showed an Emax of 466% and an EC50 of 0.044 µM.

`CCOC(=O)CSc1cnc(NC(=O)c2nc(Sc3nncn3C)ccc2Sc2ccc(Cl)c(Cl)c2)s1` [Example 51, Ethyl ({2-[({3-[(3,4-dichlorophenyl)sulfanyl]-6-[(4-methyl-4H-1,2,4-triazol-3-yl)sulfanyl]pyridin-2-yl}carbonyl)amino]-1,3-thiazol-5-yl}sulfanyl)acetate] was tested, and the Emax was 479% and the EC50 was 0.0062 µM.

Work on `CCOP(=O)(Cc1cnc(NC(=O)c2nc(Sc3nncn3C)ccc2Sc2ccc(C(F)(F)F)cc2)s1)OCC` [Example 45, Diethyl [(2-{[(6-[(4-methyl-4H-1,2,4-triazol-3-yl)sulfanyl]-3-{[4-(trifluoromethyl)phenyl]sulfanyl}pyridin-2-yl)carbonyl]amino}-1,3-thiazol-5-yl)methyl]phosphonate] yielded an Emax of 273% and an EC50 of 0.35 µM.

For `COc1ccc(Sc2ccc(Sc3nncn3C)nc2C(=O)Nc2ncc(SCC(=O)O)s2)cc1` [Example 2, ({2-[({3-[(4-methoxyphenyl)sulfanyl]-6-[(4-methyl-4H-1,2,4-triazol-3-yl)sulfanyl]pyridin-2-yl}carbonyl)amino]-1,3-thiazol-5-yl}sulfanyl)acetic acid], the Emax was 446% and the EC50 was 0.0568 µM.

For `CCOC(=O)Cc1csc(NC(=O)c2nc(Sc3ccccn3)ccc2Sc2ccc(OC)cc2)n1` [Example 16, Ethyl {2-[({3-[(4-methoxyphenyl)sulfanyl]-6-(pyridin-2-ylsulfanyl)pyridin-2-yl}carbonyl)amino]-1,3-thiazol-4-yl}acetate], the Emax was 524% and the EC50 was 0.275 µM.

In the case of `CCOC(=O)Cc1nc(NC(=O)c2nc(Sc3ccc(F)cc3)ccc2Sc2ccc(F)cc2)sc1Cl` [Example 29, Ethyl {2-[({3,6-bis[(4-fluorophenyl)sulfanyl]pyridin-2-yl}carbonyl)amino]-5-chloro-1,3-thiazol-4-yl}acetate], the Emax is reported as 158%.

`CCOC(=O)CSc1cnc(NC(=O)c2nc(Sc3nncn3C)ccc2Sc2ccc(C(F)(F)F)cc2)s1` [Example 43, Ethyl [(2-{[(6-[(4-methyl-4H-1,2,4-triazol-3-yl)sulfanyl]-3-{[4-(trifluoromethyl)phenyl]sulfanyl}pyridin-2-yl)carbonyl]amino}-1,3-thiazol-5-yl)sulfanyl]acetate] was tested, and the Emax was 384% and the EC50 was 0.0283 µM.

`COc1ccc(Sc2ccc(Sc3ccccn3)nc2C(=O)Nc2nc(CC(=O)O)cs2)cc1` [Example 17, {2-[({3-[(4-Methoxyphenyl)sulfanyl]-6-(pyridin-2-ylsulfanyl)pyridin-2-yl}carbonyl)amino]-1,3-thiazol-4-yl}acetic acid] gave an Emax of 698% and an EC50 of 0.106 µM.

`Cn1cnnc1Sc1ccc(Sc2ccc(F)cc2)c(C(=O)Nc2nc(CC(=O)O)c(Cl)s2)n1` [Example 25, {5-Chloro-2-[({3-[(4-fluorophenyl)sulfanyl]-6-[(4-methyl-4H-1,2,4-triazol-3-yl)sulfanyl]pyridin-2-yl}carbonyl)amino]-1,3-thiazol-4-yl}acetic acid] showed an Emax of 525% and an EC50 of 0.0186 µM.

For `COc1ccc(Sc2ccc(Sc3nncn3C)nc2C(=O)Nc2ccc(CC(N)=O)cc2)cc1` [Example 9, N-[4-(2-Amino-2-oxoethyl)phenyl]-3-[(4-methoxyphenyl)sulfanyl]-6-[(4-methyl-4H-1,2,4-triazol-3-yl)sulfanyl]pyridine-2-carboxamide], the Emax was 191% and the EC50 was 1.89 µM.

`Cn1cnnc1Sc1ccc(Sc2ccc(C(F)(F)F)cc2)c(C(=O)Nc2ncc(CCC(=O)O)s2)n1` [Example 49, 3-(2-{[(6-[(4-Methyl-4H-1,2,4-triazol-3-yl)sulfanyl]-3-{[4-(trifluoromethyl)phenyl]sulfanyl}pyridin-2-yl)carbonyl]amino}-1,3-thiazol-5-yl)propanoic acid] gave an Emax of 549% and an EC50 of 0.173 µM.

For `CCOC(=O)C(C)(C)CSc1cnc(NC(=O)c2nc(Sc3ccccn3)ccc2Sc2ccc(F)cc2)s1` [Example 37, Ethyl 3-({2-[({3-[(4-fluorophenyl)sulfanyl]-6-(pyridin-2-ylsulfanyl)pyridin-2-yl}carbonyl)amino]-1,3-thiazol-5-yl}sulfanyl)-2,2-dimethylpropanoate], the Emax was 450% and the EC50 was 0.129 µM.

`COc1ccc(Sc2ccc(Sc3ccccn3)nc2C(=O)Nc2nc(CC(=O)O)c(Cl)s2)cc1` [Example 13, {5-Chloro-2-[({3-[(4-methoxyphenyl)sulfanyl]-6-(pyridin-2-ylsulfanyl)pyridin-2-yl}carbonyl)amino]-1,3-thiazol-4-yl}acetic acid] gave an Emax of 584% and an EC50 of 0.009 µM.

For `CCOP(=O)(Cc1cnc(NC(=O)c2nc(Sc3nncn3C)ccc2Sc2ccc(F)cc2)s1)OCC` [Example 26, Diethyl ({2-[({3-[(4-fluorophenyl)sulfanyl]-6-[(4-methyl-4H-1,2,4-triazol-3-yl)sulfanyl]pyridin-2-yl}carbonyl)amino]-1,3-thiazol-5-yl}methyl)phosphonate], the Emax was 377% and the EC50 was 0.136 µM.

For `Cn1cnnc1Sc1ccc(Sc2ccc(F)cc2)c(C(=O)Nc2ncc(SCC(C)(C)C(=O)O)s2)n1` [Example 21, 3-({2-[({3-[(4-Fluorophenyl)sulfanyl]-6-[(4-methyl-4H-1,2,4-triazol-3-yl)sulfanyl]pyridin-2-yl}carbonyl)amino]-1,3-thiazol-5-yl}sulfanyl)-2,2-dimethylpropanoic acid], the Emax was 473% and the EC50 was 0.0172 µM.

For `CCOC(=O)CSc1cnc(NC(=O)c2nc(Sc3nncn3C)ccc2Sc2ccc(OC)cc2)s1` [Example 1, Ethyl ({2-[({3-[(4-methoxyphenyl)sulfanyl]-6-[(4-methyl-4H-1,2,4-triazol-3-yl)sulfanyl]pyridin-2-yl}carbonyl)amino]-1,3-thiazol-5-yl}sulfanyl)acetate], the Emax was 471% and the EC50 was 0.0075 µM.

For `CNC(=O)CSc1cnc(NC(=O)c2nc(Sc3nncn3C)ccc2Sc2ccc(OC)cc2)s1` [Example 3, 3-[(4-methoxyphenyl)sulfanyl]-N-(5-{[2-(methylamino)-2-oxoethyl]sulfanyl}-1,3-thiazol-2-yl)-6-[(4-methyl-4H-1,2,4-triazol-3-yl)sulfanyl]pyridine-2-carboxamide], the Emax was 572% and the EC50 was 0.0108 µM.

For `CCOP(=O)(Cc1cnc(NC(=O)c2nc(Sc3nncn3C)ccc2Sc2ccc(Cl)c(Cl)c2)s1)OCC` [Example 50], the Emax was 379% and the EC50 was 0.0571 µM.

`COC(=O)CCc1cnc(NC(=O)c2nc(Sc3nncn3C)ccc2Sc2ccc(C(F)(F)F)cc2)s1` [Example 48, Methyl 3-(2-{[(6-[(4-methyl-4H-1,2,4-triazol-3-yl)sulfanyl]-3-{[4-(trifluoromethyl)phenyl]sulfanyl}pyridin-2-yl)carbonyl]amino}-1,3-thiazol-5-yl)propanoate] was tested, and the Emax was 428% and the EC50 was 0.0718 µM.

`Cn1cnnc1Sc1ccc(Sc2ccc(C(F)(F)F)cc2)c(C(=O)Nc2nc(CC(=O)O)cs2)n1` [Example 47, (2-{[(6-[(4-Methyl-4H-1,2,4-triazol-3-yl)sulfanyl]-3-{[4-(trifluoromethyl)phenyl]sulfanyl}pyridin-2-yl)carbonyl]amino}-1,3-thiazol-4-yl)acetic acid] was tested, and the Emax was 633% and the EC50 was 0.222 µM.

`CCOC(=O)Cc1nc(NC(=O)c2nc(Sc3ccccn3)ccc2Sc2ccc(F)cc2)sc1Cl` [Example 31, Ethyl {5-chloro-2-[({3-[(4-fluorophenyl)sulfanyl]-6-(pyridin-2-ylsulfanyl)pyridin-2-yl}carbonyl)amino]-1,3-thiazol-4-yl}acetate] was tested, and the Emax was 436% and the EC50 was 0.127 µM.
